Patent US7700080B2, “Method of suppressing melanin production by metal chelates of lipoyl amino acid derivatives” (Senju Pharmaceutical Co., Ltd., priority 2001, dated 2010)

Key:
[1] = target: T1, Tyrosine hydroxylase from rat brain (Rattus norvegicus, UniProt P04177); assay: Tyrosine hydroxylase inhibiting activity; type: biochemical; settings: for Tyrosine hydroxylase inhibition rate: 37° C., 40 minutes, pH 6.0
T1 construct: Tyrosine hydroxylase from rat brain was used in the test; from tissue; host or cells: rat brain
T1 sequence (P04177 whole entry): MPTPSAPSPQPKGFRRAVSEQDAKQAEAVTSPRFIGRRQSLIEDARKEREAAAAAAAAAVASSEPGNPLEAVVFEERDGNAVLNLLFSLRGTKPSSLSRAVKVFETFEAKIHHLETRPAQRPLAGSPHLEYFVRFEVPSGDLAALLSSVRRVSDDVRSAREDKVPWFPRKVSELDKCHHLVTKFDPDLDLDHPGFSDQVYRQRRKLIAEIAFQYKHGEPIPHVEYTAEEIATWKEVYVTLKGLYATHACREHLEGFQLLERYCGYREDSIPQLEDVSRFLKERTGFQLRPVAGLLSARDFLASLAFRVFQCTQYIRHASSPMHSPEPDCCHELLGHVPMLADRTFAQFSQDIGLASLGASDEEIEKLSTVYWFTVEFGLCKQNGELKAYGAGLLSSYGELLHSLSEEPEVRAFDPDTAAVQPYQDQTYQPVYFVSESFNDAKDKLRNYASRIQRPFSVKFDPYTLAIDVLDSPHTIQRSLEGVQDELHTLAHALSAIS
Protocol: Tyrosine hydroxylase from rat brain was used in the test.
A test compound added to 100 μM tyrosine containing L-[3,5-^3H] tyrosine (0.5 μCi/assay), 1 mg of tyrosine hydroxylase, 0.2 mM of (6R)-5,6,7,8-tetrahydro-L-biopterin, 1.8 mg/ml catalase, 5 mM dithiothreitol (in MES buffer, pH 6.0) was incubated at 37° C. for 40 minutes. The reaction was terminated by addition of 7.5% charcoal in 1 M hydrochloric acid.
^3H2O derived from 3,4-dihydroxyphenylalanine (DOPA) was determined by liquid scintillation.

[2] = tested on: B16-F0 melanoma cell line; assay: Melanin production suppressing activity in B16-F0 melanoma cells; type: cell-based, mouse; settings: for Melanin amount (% of control): three days with 2 mM theophylline; for Suppressive action on melanin production (in words): summary of Table 2, compared with arbutin or kojic acid
Protocol: B16-F0 melanoma cell line of mouse origin, purchased from Dainippon Pharmaceutical Co., Ltd. was used in the experiment. In 60-mm petri dish, 200,000 cells were incubated for five days in a medium (D-MEM*+10% FBS*) supplemented with 0.1% D-glucosamine hydrochloride, an inhibitor of carbohydrate synthesis, to halt melanin synthesis and turn the culture white. Following the 5-day culture, the cells were washed with PBS(−)* to remove D-glucosamine hydrochloride, and 2 mM theophylline (250-fold concentrated solution/distilled water), a phosphodiesterase inhibitor, was added to raise intracellular cAMP and thereby promote the recovery of tyrosinase synthesis. At the same time, a test compound (250-fold concentrated solution/PBS(−)) was added. Three days after the addition of theophylline and the test compound, the cells were harvested by trypsin treatment. The cell pellets were resuspended in 1 ml of PBS(−), 0.1 ml of which was used for counting cells, and 0.9 ml for melanin determination. Determination of melanin was carried out by washing the cell pellets once with 5% trichloroacetic acid, ethanol/diethyl ether (3:1), and then diethyl ether, adding 1 ml of 2 N NaOH to lyse the cells, measuring optical density at 420 nm, and comparing the result with a calibration curve produced with reference standard.

[3] = tested on: elastase; assay: Elastase inhibiting activity (Suc(Ome)-Ala-Ala-Pro-Val-MCA fluorescence); type: biochemical; settings: for Elastase inhibition rate (%): 25° C., pH 7.5; for Elastase inhibiting activity (in words): summary of Table 3
Protocol: 96-well plates were used. 1 mM of Suc(Ome)-Ala-Ala-Pro-Val-MCA, 30 μl of a test sample, 210 μl of Tris-NaCl Buffer (25° C., pH 7.5) and 30 μl of 1 unit/ml elastase were added and fluorescence was measured every minute (Ex. 360/40 nm, Em. 460/40 nm). Inhibition rates of elastase activity were determined based on a calibration curve produced with AMC (7-amino-4-methyl-coumarin) reference standard.

SMILES	Tyrosine hydroxylase inhibition rate ([1]; test compound 0.1 mM)	Tyrosine hydroxylase inhibition rate ([1]; test compound 1 mM)	Melanin amount (% of control) ([2]; 0.03 mM)	Melanin amount (% of control) ([2]; 0.1 mM)	Melanin amount (% of control) ([2]; 0.3 mM)	Suppressive action on melanin production (in words) [2]	Tyrosine hydroxylase inhibiting activity (in words) ([1]; summary of Table 1)	Elastase inhibition rate (%) ([3]; 0.03 mM)	Elastase inhibition rate (%) ([3]; 0.1 mM)	Elastase inhibition rate (%) ([3]; 0.3 mM)	Elastase inhibiting activity (in words) [3]	Melanin amount (% of control) ([2]; 1 mM)	Melanin amount (% of control) ([2]; 10 mM)	Elastase inhibition rate (%) ([3]; 1 mM)
O=C(CCCCC1CC[S][Zn][S]1)NCCS(=O)(=O)[O-].[Na+] (centres unmarked) [Example 1, N-(6,8-dimercaptooctanoyl)aminoethanesulfonic acid sodium salt zinc chelate compound]	15%	53%	78.33 % of control	30.01 % of control	12.28 % of control	potent suppressive action on melanin production								
O=C(O)CCCCC1CCSS1 (stereo not drawn) [α-lipoic acid, reference compound]	2%	1%					no tyrosine hydroxylase inhibiting activity	−2.94%	11.76%	10.29%	did not show any elastase inhibiting activity			
O=c1cc(CO)occ1O [Kojic acid, reference compound]				92.70 % of control	88.04 % of control							68.80 % of control	18.73 % of control	
O=C(CCCCC1CC[S][Zn][S]1)NC(Cc1ccccc1)C(=O)[O-].[Na+] (centres unmarked) [Example 7, N-(6,8-dimercaptooctanoyl)phenylalanine sodium salt zinc chelate compound]			71.43 % of control	37.78 % of control		potent suppressive action on melanin production		83.33%			comparable to Elastinal			
O=C(CCCCC1CCSS1)NCCS(=O)(=O)[O-].[Na+] (stereo not drawn) [Reference Example 1, N-α-lipoylaminoethanesulfonic acid sodium salt]	11%	10%												
O=C([O-])CCCNC(=O)CCCCC1CC[S][Zn][S]1.[Na+] (centres unmarked) [Example 6, N-(6,8-dimercaptooctanoyl)-γ-amino-n-butyric acid sodium salt zinc chelate compound]			61.18 % of control	29.20 % of control	9.73 % of control	potent suppressive action on melanin production		78.95%			comparable to Elastinal			
O=C([O-])CCCCCNC(=O)CCCCC1CC[S][Zn][S]1.[Na+] (centres unmarked) [Example 5, N-(6,8-dimercaptooctanoyl)-6-aminohexanoic acid sodium salt zinc chelate compound]			64.43 % of control	27.69 % of control	9.85 % of control	potent suppressive action on melanin production		94.74%			comparable to Elastinal			
OC[C@H]1O[C@@H](Oc2ccc(O)cc2)[C@H](O)[C@@H](O)[C@@H]1O [Arbutin, reference compound]				97.29 % of control	88.86 % of control							83.02 % of control		
CSCCC(NC(=O)CCCCC1CC[S][Zn][S]1)C(=O)O (centres unmarked) [Example 9, N-(6,8-dimercaptooctanoyl)methionine zinc chelate compound]			63.05 % of control	50.18 % of control	16.41 % of control	potent suppressive action on melanin production		7.41%	68.52%	88.89%	comparable to Elastinal			
CC(C)C[C@H](NC(=O)N[C@H](C(=O)N[C@@H](CCC(N)=O)C(=O)N[C@@H](C)C=O)[C@@H]1CCNC(=N)N1)C(=O)O [Elastinal, reference compound]								25.29%	56.87%	77.45%				93.01%
O=C(CCCCC1CC[S][Zn][S]1)Nc1ccccc1C(=O)[O-].[Na+] (centres unmarked) [Example 8, N-(6,8-dimercaptooctanoyl)anthranilic acid sodium salt zinc chelate compound]			72.47 % of control	47.64 % of control	16.74 % of control	potent suppressive action on melanin production		24.07%	48.15%	72.22%	comparable to Elastinal			
